Experiments:
HepG2 cells = test: qRT-PCR gene expression in HepG2 cells; type: cell-based, human; details: 24 h
Description: Figure 2 MD001 induces the expression of target genes through PPARα and PPARγ activation. HEK293 cells were transiently co-transfected with human HA-PPARα (A) and HA-PPARγ (B) expression vectors along with the reporter plasmid (PPRE-pk-Luc) or control reporter plasmid (pk-Luc) with Renilla vector for 24 h. Cells were treated with MD001 (10 μM), rosiglitazone (rosi) (10 μM) or WY14643 (WY) (10 μM) for 24 h. Luciferase activity was normalised to Renilla luciferase activity as described in the Methods section. **, vs. vehicle. (C) HepG2 cells were treated with MD001 (10 μM) for 24 h, and total RNA was isolated and synthesised into cDNA. Relative expression was quantitated using qRT-PCR. **, vs. vehicle. (D,E) HepG2 cells were transfected with control siRNA, PPARα siRNA (D), or PPARγ siRNA (E) for 48 h and treated with vehicle, WY14643 (10 μM), rosiglitazone (10 μM) or MD001 (10 μM) for 24 h. Subsequently, cells were harvested for total RNA isolation. Relative expression of target genes was quantitated using qRT-PCR. ^#, vs. control siRNA; ^‡, vs. control siRNA/vehicle; ^§, vs. control siRNA/WY; * and **, vs. control siRNA/MD001. Data represent the mean ± SD of three independent experiments. *P < 0.05, **P < 0.01, ^#P < 0.01, ^‡P < 0.01, and ^§P < 0.01.
(§1) Figure 3 MD001 promotes glucose consumption by induction of GLUT expression. HepG2 (A), differentiated 3T3-L1 adipocytes (B), and differentiated C2C12 myotubes (C) were treated with vehicle, MD001 (10, 50 μM), or rosiglitazone (rosi, 10 μM) for 24 h; glucose consumption was examined as described in the Methods section. Cells were harvested for total RNA isolation. Relative expression levels of GLUT2 (D) and GLUT4 (E,F) were quantitated using qRT-PCR. *, **, and ^† vs. vehicle. Data represent the mean ± SD of three independent experiments. *P < 0.05, **P < 0.01, and ^†P < 0.01.
Figure 4 MD001 stimulates fatty acid oxidation in vitro. HepG2 (A), differentiated 3T3-L1 adipocyte (B), and differentiated C2C12 myotubes (C) were treated with vehicle or MD001 (10 μM) for 24 h and total RNA was isolated for cDNA synthesis. Relative gene expressions were analysed by qRT-PCR. HepG2 (D), differentiated 3T3-L1 adipocytes (E), and differentiated C2C12 myotubes (F) were treated with vehicle, MD001 (10 μM), or WY14643 (WY) (10 μM) for 24 h and the fatty acid oxidation rate was analysed as described in the Methods section. To confirm whether the fatty acid oxidation rate enhanced by MD001 is mediated by PPARα, HepG2 (G), differentiated 3T3-L1 (H), and differentiated C2C12 myotubes (I) were transfected with control or PPARα siRNA (20 nM) for 48 h, followed by treatment with vehicle, MD001 (10 μM), or WY14643 (WY) (10 μM) for 24 h. WY14643 was treated as positive control. *, **, vs. vehicle; ^† and ^‡, vs. vehicle/control siRNA; ^§, vs. WY/control siRNA; ^¶, vs. MD001/control siRNA. Data represent the mean ± SD of three independent experiments. *P < 0.05, **P < 0.01, ^†P < 0.01, ^‡P < 0.05, ^§P < 0.01, and ^¶P < 0.05.
(§2) Total RNA was isolated using an RNeasy kit (Qiagen, Germantown, MD, USA) according to the manufacturer’s instructions. Complementary DNA (cDNA) was synthesised by reverse transcription using 0.5 μg of total RNA, and quantitative RT-PCR was performed using Power SYBR Green PCR Master Mix (ABI Thermo Fisher Scientific, Foster City, CA, USA) on a StepOne 48-well real-time PCR system (ABI/Thermo Fisher Scientific). GAPDH was used as an endogenous control. Primer sequences are summarized in Supplementary Table S1.

db/db mice = test: Oral once-daily administration to diabetic db/db mice
Description: (A) Changes in blood glucose levels was monitored in db/db mice administered once a day with vehicle, WY14643 (WY, 20 mg/kg), rosiglitazone (rosi, 20 mg/kg), or MD001 (n = 5–6 per group) as indicated. […] (D–M) The change in various blood metabolites was examined in db/db mice administered once a day with vehicle, WY14643 (WY), rosiglitazone (rosi), or MD001 (n = 5–6 per group). *, **, and ^#, vs. vehicle; ^†, vs. vehicle, MD001(5 mg/kg), and MD001(20 mg/kg). The data represent the mean ± S.D. *P < 0.05, **P < 0.01, ^#P < 0.001, and ^†P < 0.01.
Six-week-old C57BLKS/J-Lepr^db/Lepr^db or wild type C57BL/6J male mice were purchased from Orient Bio, Inc. (Seongnam, Korea) and acclimatised for one week. Mice were randomly grouped and orally administered with vehicle, WY14643 (20 mg/kg), rosiglitazone (20 mg/kg), or MD001 (5 mg/kg or 20 mg/kg) once a day for two months. […] Blood glucose levels were measured at the indicated time point using an OneTouch Ultra Blood Glucose Monitoring System (LifeScan, Inc., Milpitas, CA, USA).
Livers and blood samples were collected from mice in each group.
Tissues specimens including liver, perigonadal adipose tissue, skeletal muscle, spleen, kidney, and heart, were collected from mice in each group, fixed in 10% formalin, and embedded into paraffin. Tissue sections (5 μm) were stained with haematoxylin and eosin (H&E).

[1] = tested on: differentiated 3T3-L1 adipocytes; test: qRT-PCR gene expression in differentiated 3T3-L1 adipocytes; type: cell-based, mouse; details: 24 h
Description: as §1
Figure 4 MD001 stimulates fatty acid oxidation in vitro. […] Relative gene expressions were analysed by qRT-PCR. HepG2 (D), differentiated 3T3-L1 adipocytes (E), and differentiated C2C12 myotubes (F) were treated with vehicle, MD001 (10 μM), or WY14643 (WY) (10 μM) for 24 h and the fatty acid oxidation rate was analysed as described in the Methods section. […]
as §2, with “GAPDH was used as an endogenous control. Primer sequences are summarized in Supplementary Table S1.” left out

wild type C57BL/6J mice = test: Oral once-daily administration to wild type C57BL/6J mice; type: in vivo, mouse
Description: Supplementary Figure S6. MD001 has no influence on food intake of mice. (A) Wild type C57/BL6 mice were orally administered with vehicle, rosiglitazone (20 mg/kg), or MD001 (20 mg/kg) once a day for 60 days. The change in their body weight was evaluated and presented as gain of body weight per group (n = 5 - 6 in each group). (B) The 3-day food intake in wild type C57/BL6 mice or db/db mice during the administration of the indicated drug was measured three times (n = 5 - 6 in each group). The data represent the mean ± SD.
C57/BL6 mice. (A-H) Wild type C57/BL6 mice were administered with vehicle, rosiglitazone (20 mg/kg), or MD001 (20 mg/kg) (n = 5 in each group) for 60 days, and their blood metabolites were measured. (B) Blood glucose level was examined during the administration of the […]

[2] = db/db mice, 60 days, rosiglitazone 20 mg/kg, MD001 5 and 20 mg/kg
[3] = db/db mice, once a day for 60 days, rosiglitazone 20 mg/kg
[4] = db/db mice, 20 mg/kg, 60 days, qRT-PCR
[5] = db/db mice, 20 mg/kg, qRT-PCR and immunoblot
[6] = wild type C57BL/6J mice, 20 mg/kg, 60 days, compared to vehicle
[7] = wild type C57BL/6 mice, 20 mg/kg, 60 days

Cc1c(O)cc(O)c2c(-c3ccccc3)c(C(=O)/C=C/c3ccccc3)c(=O)oc12 [MD001] was tested, and the “expression of PPARα target genes ACOX, CPT, mCAD” value (HepG2 cells; HepG2, control siRNA, 10 μM) was “significantly increased”, the “expression of PPARγ target genes GK, CD36, FABP1” value (HepG2 cells; HepG2, control siRNA, 10 μM) was “significantly increased” and the “expression levels of ACOX, CPT, MLYCD, and FATP” value (HepG2 cells; HepG2, 10 μM) was “significantly increased”. The “expression of PPARα, PPARγ, and RXR genes” value (HepG2 cells; HepG2, 10 μM) was “significantly increased”, the “expression of glucose transporter GLUT2” value (HepG2 cells; HepG2, 10, 50 μM) was “significantly increased” and the “blood glucose levels in intraperitoneal insulin tolerance test (IPITT)” value (db/db mice; db/db mice) was “lowered”. For the same compound, the body weight gain (db/db mice; db/db mice, 60 days, compared to vehicle) was “no induction of body weight gain”, the RBC count (db/db mice; [2]) was “did not decrease” and the “haematocrit (HCT) level” value (db/db mice; [2]) was “did not decrease”. The “haemoglobin (Hb) level” value (db/db mice; [2]) was “did not decrease”, the “number of large fat cells (>150 μm in diameter)” value (db/db mice; db/db mice, adipose tissue H&E) was “significantly reduced” and the “number of medium fat cells (100~150 μm in diameter)” value (db/db mice; db/db mice, adipose tissue H&E) was “significantly increased”. For the same compound, the “number of small fat cells (<100 μm in diameter)” value (db/db mice; db/db mice, adipose tissue H&E) was “significantly increased”, the “increase in fat mass as compared to the vehicle control” value (db/db mice; [3]) was “no increase” and the “increase in liver weight as compared to the vehicle control” value (db/db mice; [3]) was “no increase”. The HDL levels (db/db mice; db/db mice, oral once a day) was “increased”, the LDL levels (db/db mice; db/db mice, oral once a day) was “significantly decreased” and the “blood FFA” value (db/db mice; db/db mice, oral once a day) was “significantly decreased”. For the same compound, the “blood TG” value (db/db mice; db/db mice, oral once a day) was “significantly decreased”, the “blood alanine aminotransferase (ALT) levels” value (db/db mice; db/db mice, oral once a day) was “significantly reduced” and the “blood aspartate aminotransferase (AST) levels” value (db/db mice; db/db mice, oral once a day) was “significantly reduced”. For the same compound, the blood insulin (db/db mice; db/db mice, oral once a day) was “significantly decreased”, the “serum adiponectin (Acrp30) levels” value (db/db mice; db/db mice, oral once a day) was “increased” and the total cholesterol levels (db/db mice; db/db mice, oral once a day) was “did not affect”. The blood glucose levels (db/db mice; db/db mice, oral once a day, MD001 5 or 20 mg/kg, WY14643 20 mg/kg, rosiglitazone 20 mg/kg) was “significantly decreased blood glucose levels in a dose-dependent manner”, the “hepatic FFA” value (db/db mice; db/db mice, 20 mg/kg) was “significantly reduced” and the “hepatic TG” value (db/db mice; db/db mice, 20 mg/kg) was “significantly reduced”. The “hepatic steatosis (H&E staining of liver)” value (db/db mice; db/db mice, 20 mg/kg) was “reduction in size and number of hepatic lipid droplets in a dose-dependent manner”, the “diameter of the glomerular capsule” value (db/db mice; db/db mice, 20 mg/kg once a day for 60 days) was “significantly reduced” and the “expression of PEPCK and G6Pase in the liver” value (db/db mice; db/db mice, 20 mg/kg once a day for 60 days, qRT-PCR) was “decreased”. For the same compound, the “H&E staining of skeletal muscle” value (db/db mice; db/db mice, 20 mg/kg, 60 days, compared among vehicle and treated groups) was “no differences”, the “expression of inflammatory genes TNFα, MCP-1 and macrophage-marker genes CD11b, CD11c” value (db/db mice; [4]) was “decreased” and the “liver expression of hepatic lipogenesis genes ADD1, ACC, FAS” value (db/db mice; [4]) was “decreased”. For the same compound, the “skeletal muscle expression of ACOX, CPT, MLYCD, GLUT4, and LPL” value (db/db mice; [4]) was “significantly increased”, the “adipose tissue expression of ACOX, CPT, GLUT4, and CD36” value (db/db mice; [5]) was “significantly increased” and the “liver expression of target genes of PPARα (ACOX, CPT, MLYCD) and PPARγ (GLUT2, GK, CD36)” value (db/db mice; [5]) was “significantly increased”. For the same compound, the “blood glucose levels in oral glucose tolerance test (OGTT)” value (db/db mice; db/db mice, glucose 1 g/kg, eight weeks after drug administration) was “significantly decreased”, the food ingestion (db/db mice; wild type C57BL/6J and db/db mice, 3-day food intake) was “without changes in food ingestion” and the “expression levels of ACOX and CPT” value ([1]; 10 μM) was “significantly increased”. For the same compound, the “expression of glucose transporter GLUT4” value ([1]; 10, 50 μM) was “significantly increased”, the body weight gain (wild type C57BL/6J mice; wild type C57BL/6J mice, once a day for 60 days) was “no induction of body weight gain” and the “H&E staining of adipose tissue, skeletal muscle, and liver” value (wild type C57BL/6J mice; wild type C57BL/6J mice, 20 mg/kg once a day for 60 days) was “no differences”. The blood glucose (wild type C57BL/6J mice; [6]) was “did not have any effect”, the “levels of plasma lipids” value (wild type C57BL/6J mice; [6]) was “did not have any effect” and the “blood ALT levels” value (wild type C57BL/6J mice; [7]) was “no effect”. The “blood AST levels” value (wild type C57BL/6J mice; [7]) was “no effect”.
